Source: patent publication US20260062426A1, “CYCLIN DEPENDENT KINASE DEGRADERS AND METHODS OF USE THEREOF” (Differentiated Therapeutics Inc, priority 2023, published 2026)

Columns and labels:
Format in all cases: cell-based
CDK2 = target: T1, CDK2 (Homo sapiens, UniProt P24941); test: CDK2 HIBIT PQ (protein quantification), degradation; details: for CDK2 HIBIT PQ Max (%): Max = Maximum; for DC50: PQ = Protein Quantification
T1 construct: host or cells: HEK293
How it was run: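 After overnight incubation at 37° C and 5% CO2 in 384-well plates (1.6×10^5 cells/well, 50 uL, DMEM with 10% FBS), HEK293 cells with HiBiT-tagged CDK2 were treated with compound for 6 hours. Detection used 20 μL of Nano-Glo HiBiT lytic reagent with LgBiT protein, 20 minutes of shaking at room temperature and an EnVision reading, with 0.1% DMSO as high control and medium alone as low control. These readings were the basis for DC50 and maximal degradation.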

CDK9 = target: T2, CDK9 (Homo sapiens, UniProt P50750); test: CDK9 HIBIT PQ (protein quantification), degradation; details: for Dmax: Max = Maximum; for DC50: PQ = Protein Quantification
T2 construct: host or cells: HEK293
How it was run: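 CDK9 protein was read by HiBiT assay in treated HEK293 cells carrying HiBiT-tagged CDK9, seeded at 1.6×10^5 cells/well in 50 uL in 384-well plates and incubated overnight at 37° C and 5% CO2. Controls were 0.1% DMSO-treated cells (high) and culture medium only (low). Maximal degradation, Dmax and DC50 were calculated from these readings.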

CCNE1 = target: T3, CCNE1 (Homo sapiens, UniProt P24864+P24941); test: CCNE1 HIBIT PQ (protein quantification), degradation; details: for CCNE1 HIBIT PQ Max (%): Max = Maximum; for DC50: PQ = Protein Quantification
T3 construct: host or cells: HEK293
How it was run: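 HEK293 cells carrying HiBiT-tagged CCNE1 were grown in EMEM with 10% FBS and seeded in 384-well plates at 1.6×10⁵ cells/well in 50 uL, then incubated overnight at 37° C and 5% CO₂. Compound treatment lasted 6 hours, and CCNE1 protein was then measured with a HiBiT assay. High control was 0.1% DMSO-treated cells and low control was culture medium only. Maximal degradation and DC50 were derived from these readings.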

T2 sequence (P50750 whole entry): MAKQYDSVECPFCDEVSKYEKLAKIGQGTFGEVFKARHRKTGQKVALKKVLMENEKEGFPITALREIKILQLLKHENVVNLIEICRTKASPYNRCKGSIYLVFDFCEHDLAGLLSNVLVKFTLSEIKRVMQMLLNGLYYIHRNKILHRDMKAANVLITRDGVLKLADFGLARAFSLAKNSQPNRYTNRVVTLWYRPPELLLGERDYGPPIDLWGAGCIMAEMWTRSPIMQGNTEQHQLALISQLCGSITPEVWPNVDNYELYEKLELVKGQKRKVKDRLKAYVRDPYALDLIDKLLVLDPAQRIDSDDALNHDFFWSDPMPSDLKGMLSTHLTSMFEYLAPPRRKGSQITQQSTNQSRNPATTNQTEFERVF

Row | CDK2 HIBIT PQ Max (%) (CDK2) | DC50 (CDK2) | Dmax (CDK9) | CCNE1 HIBIT PQ Max (%) (CCNE1) | DC50 (CDK9) | DC50 (CCNE1) | Structure (SMILES)
1 | 75% | 1 nM | 13% | 48% |  |  | CC(C)Oc1c(-c2cn[nH]c2)ncn2nc(Nc3ccc(S(=O)(=O)N4CCC[C@H](CN5CC[C@H](c6ccc7c(N8CCC(=O)NC8=O)nn(C)c7c6)CC5(C)C)C4)cc3F)nc12 (single isomer, unassigned) [Compound 104]
2 | 68% | 0.6 nM | 19% | 41% |  |  | CC(C)Oc1c(-c2cn[nH]c2)ncn2nc(Nc3ccc(S(=O)(=O)N4CCC[C@H](CN5CC[C@H](c6ccc7c(N8CCC(=O)NC8=O)nn(C)c7c6)CC5(C)C)C4)cc3F)nc12 (relative stereo) [Compound 97, rel-1-(6-((R)-1-(((S)-1-((3-fluoro-4-((8-isopropoxy-7-(1H-pyrazol-4-yl)-[1,2,4]triazolo[1,5-c]pyrimidin-2-yl)amino)phenyl)sulfonyl)piperidin-3-yl)methyl)-2,2-dimethylpiperidin-4-yl)-1-methyl-1H-indazol-3-yl)dihydropyrimidine-2,4(1H,3H)-dione]
3 | 70% | 43.4 nM | 17% | 38% |  |  | CC(C)Oc1c(-c2cn[nH]c2)ncn2nc(Nc3ccc(S(=O)(=O)c4cccc(C[C@H]5C[C@H](c6ccc7c(N8CCC(=O)NC8=O)nn(C)c7c6)C5)c4)cc3F)nc12 [Compound 89, rel-1-(6-((1s,3r)-3-(3-((3-fluoro-4-((8-isopropoxy-7-(1H-pyrazol-4-yl)-[1,2,4]triazolo[1,5-c]pyrimidin-2-yl)amino)phenyl)sulfonyl)benzyl)cyclobutyl)-1-methyl-1H-indazol-3-yl)dihydropyrimidine-2,4(1H,3H)-dione]
4 | 93% |  | 90% | 82% | 0.48 nM | 0.23 nM | CC(C)Oc1c(-c2cn[nH]c2)ncn2nc(Nc3ccc(S(=O)(=O)N(C)CCCN4CCC(c5ccc6c(c5)n(C)c(=O)n6C5CCC(=O)NC5=O)CC4)c(F)c3F)nc12 (racemic) [Compound 56]
5 | 96% | 3.6 nM | 103% | 89% | 16.7 nM | 8.91 nM | CC(C)Oc1c(-c2cn[nH]c2)ncn2nc(N[C@H]3CCN(S(=O)(=O)c4cccc(CN5CCN(c6ccc7c(N8CCC(=O)NC8=O)nn(C)c7c6)CC5)c4)C[C@H]3C)nc12 [Compound 40]
6 | 66% | 6.3 nM | 6% | 10% |  |  | CC(C)Oc1c(-c2cn[nH]c2)ncn2nc(Nc3ccc(S(=O)(=O)N4CC5(CCCN(CCOc6cccc7c6n(C)c(=O)n7C6CCC(=O)NC6=O)C5)C4)cc3F)nc12 (centres unmarked) [Compound 27]
7 | 94% | 8 nM | 12% | 78% |  | 18.7 nM | CC(C)Oc1c(-c2cn[nH]c2)ncn2nc(Nc3ccc(S(=O)(=O)c4cccc(C[C@H]5C[C@@H](c6ccc7c(c6)CN(C6CCC(=O)NC6=O)C7=O)C5)c4)cc3F)nc12 (some centres unmarked) [Compound 29, 3-{1-oxo-5-[(1s,3s)-3-{[3-(3-fluoro-4-{[8-isopropoxy-7-(1H-pyrazol-4-yl)-[1,2,4]triazolo[1,5-c]pyrimidin-2-yl]amino}benzenesulfonyl)phenyl]methyl}cyclobutyl]-3H-isoindol-2-yl}piperidine-2,6-dione]
8 | 79% | 3.1 nM | 2% | 21% |  |  | CC(C)Oc1c(-c2cn[nH]c2)ncn2nc(Nc3ccc(S(=O)(=O)c4cccc(CN5CC6CC5CN6c5ccc6c(N7CCC(=O)NC7=O)nn(C)c6c5)c4)cc3F)nc12 (centres unmarked) [Compound 48]
9 | 79% | 6.5 nM | 17% | 25% |  |  | CC(C)Oc1c(-c2cn[nH]c2)ncn2nc(Nc3ccc(S(=O)(=O)c4cccc(N5CCCC6C5CN6c5ccc6c(c5)CN(C5CCC(=O)NC5=O)C6=O)c4)cc3F)nc12 (centres unmarked) [Compound 35]
10 | 89% | 0.1 nM | 74% | 82% | 1.57 nM | 0.59 nM | CC(C)Oc1c(-c2cn[nH]c2)ncn2nc(Nc3ccc(S(=O)(=O)N(C)CCCN4CCC(c5ccc6c(c5)n(C)c(=O)n6C5CCC(=O)NC5=O)CC4)cc3)nc12 (racemic) [Compound 54]
11 | 92% | 1.07 nM | 91% | 96% | 2.13 nM | 0.76 nM | CC(C)Oc1c(-c2cn[nH]c2)ncn2nc(N[C@H]3CCN(S(=O)(=O)N(C)CCCN4CCC(c5cccc6c5n(C)c(=O)n6C5CCC(=O)NC5=O)CC4)C[C@H]3C)nc12 (some centres unmarked) [Compound 7]
12 | 87% | 1 nM | 80% | 75% | 8.05 nM | 3.16 nM | CC(C)Oc1c(-c2cn[nH]c2)ncn2nc(Nc3ccc(S(=O)(=O)N4CCC[C@H](CN5CC[C@@H](c6ccc7c(N8CCC(=O)NC8=O)nn(C)c7c6)CC5(C)C)C4)cc3F)nc12 (single isomer, unassigned) [Compound 96]
13 | 93% | 1.5 nM | 82% | 80% | 12 nM | 9.64 nM | CC(C)Oc1c(-c2cn[nH]c2)ncn2nc(Nc3ccc(S(=O)(=O)c4cccc(C(C)N5CCC(c6ccc7c(N8CCC(=O)NC8=O)nn(C)c7c6)CC5)c4)cc3F)nc12 (racemic) [Compound 85]
14 | 80% | 0.59 nM | 103% | 73% | 1.48 nM | 0.88 nM | CC(C)Oc1c(-c2cn[nH]c2)ncn2nc(NC3CCN(S(=O)(=O)N4CCC(CN5CCC(c6cccc7c6n(C)c(=O)n7C6CCC(=O)NC6=O)CC5)CC4)CC3)nc12 (racemic) [Compound 6, rac-(R)-3-(4-(1-((1-((4-((8-isopropoxy-7-(1H-pyrazol-4-yl)-[1,2,4]triazolo[1,5-c]pyrimidin-2-yl)amino)piperidin-1-yl)sulfonyl)piperidin-4-yl)methyl)piperidin-4-yl)-3-methyl-2-oxo-2,3-dihydro-1H-benzo[d]imidazol-1-yl)piperidine-2,6-dione]
15 | 85% | 0.42 nM | 53% | 44% | 6.6 nM |  | CC(C)Oc1c(-c2cn[nH]c2)ncn2nc(Nc3ccc(S(=O)(=O)c4cccc(CN5CCC(c6cccc7c6n(C)c(=O)n7C6CCC(=O)NC6=O)CC5)c4)cc3F)nc12 (racemic) [Compound 13]
16 | 85% | 4.7 nM | 55% | 28% | 92.5 nM |  | CC(C)Oc1c(-c2cn[nH]c2)ncn2nc(Nc3ccc(S(=O)(=O)N4CCC5(CCN(CC6CN(c7cccc8c7n(C)c(=O)n8C7CCC(=O)NC7=O)C6)C5)C4)cc3F)nc12 (centres unmarked) [Compound 75]
17 | 81% | 0.2 nM | 41% | 21% |  |  | CC(C)Oc1c(-c2cn[nH]c2)ncn2nc(Nc3ccc(S(=O)(=O)c4cccc(CN5CCC(c6ccc7c(c6)n(C)c(=O)n7C6CCC(=O)NC6=O)CC5)c4)cc3F)nc12 (racemic) [Compound 25]
18 | 6% |  | 2% | 0% |  |  | CC(C)Oc1c(-c2cn[nH]c2)ncn2nc(Nc3ccc(S(=O)(=O)N(C)CCCN4CCC(c5cccc6c5n(C)c(=O)n6C5CCC(=O)N(C)C5=O)CC4)cc3F)nc12 (racemic) [Compound 28]
19 | 87% | 1.1 nM | 61% | 42% | 10.6 nM |  | CC(C)Oc1c(-c2cn[nH]c2)ncn2nc(Nc3ccc(S(=O)(=O)c4cccc(OC5CN(C6CCN(c7ccc8c(c7)CN(C7CCC(=O)NC7=O)C8=O)CC6)C5)c4)cc3F)nc12 (racemic) [Compound 23]
20 | 89% | 78.1 nM | 62% | 62% | 396 nM | > 3000 nM | CC(C)Oc1c(-c2cn[nH]c2)ncn2nc(Nc3ccc(S(=O)(=O)c4cccc(CC5CC(c6ccc(C(=O)NC7CCC(=O)NC7=O)cc6)C5)c4)cc3F)nc12 (racemic) [Compound 32, rac-N-[(3R)-2,6-dioxopiperidin-3-yl]-4-(3-{[3-(3-fluoro-4-{[8-isopropoxy-7-(1H-pyrazol-4-yl)-[1,2,4]triazolo[1,5-c]pyrimidin-2-yl]amino}benzenesulfonyl)phenyl]methyl}cyclobutyl)benzamide]

Row | Structure (SMILES) | CDK2 HIBIT PQ Max (%) (CDK2) | DC50 (CDK2) | Dmax (CDK9) | CCNE1 HIBIT PQ Max (%) (CCNE1) | DC50 (CDK9) | DC50 (CCNE1)
21 | CC(C)Oc1c(-c2cn[nH]c2)ncn2nc(Nc3ccc(S(=O)(=O)N(C)CCCN4C5CCC4CN(c4ccc6c(c4)n(C)c(=O)n6C4CCC(=O)NC4=O)C5)cc3F)nc12 (centres unmarked) [Compound 68] | 90% | 0.1 nM | 73% | 67% | 2.76 nM | 1.05 nM
